Assay results reported in patent US20230040770A1, “HETEROCYCLIC COMPOUND AND USE THEREOF” (TAKEDA PHARMACEUTICAL COMPANY LIMITED, priority 2019, published 2023).

Molecular target: T1, human orexin type 2 receptor (Homo sapiens, UniProt O43614)
T1 construct: expressed in transfected cells
T1 sequence (O43614 1-444): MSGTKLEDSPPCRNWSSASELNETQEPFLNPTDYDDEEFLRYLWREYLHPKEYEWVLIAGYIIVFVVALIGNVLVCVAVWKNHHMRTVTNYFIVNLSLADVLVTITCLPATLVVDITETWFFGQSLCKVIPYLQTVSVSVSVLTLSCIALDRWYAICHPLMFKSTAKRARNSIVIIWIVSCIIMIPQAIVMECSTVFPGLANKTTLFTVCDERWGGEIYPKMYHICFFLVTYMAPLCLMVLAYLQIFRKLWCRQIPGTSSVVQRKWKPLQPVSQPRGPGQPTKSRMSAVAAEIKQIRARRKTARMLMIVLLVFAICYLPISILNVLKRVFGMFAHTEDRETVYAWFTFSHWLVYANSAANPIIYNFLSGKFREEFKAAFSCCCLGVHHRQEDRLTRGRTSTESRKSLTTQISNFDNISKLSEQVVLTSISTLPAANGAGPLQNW
Assay: Measurement of orexin type 2 receptor agonist activity (calcium indicator fluorescence, CHO cells forcibly expressing human OX2 receptor)
Assay type: cell-based
Conditions: compound at 3 μM; 0% = DMSO, 100% = orexin A (human) 10 nM
How it was run: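 CHO-dhfr cells stably expressing human OX2R, loaded with Fluo-4 AM (30 min 37 °C, then 30 min RT), then given test compound. Calcium fluorescence read by FDSS over ~2 min. Activity (%) scaled from DMSO (0%) to 10 nM final orexin A (100%).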

SMILES	OX2R agonist activity (3 μM, %)
CCS(=O)(=O)N[C@@H]1[C@H](Cc2cccc(-c3cccc(Cl)c3)c2F)N(C(=O)C(C)(C)O)CC1(F)F [Example 68, N-[(2S,3R)-2-[(3′-chloro-2-fluoro[1,1′-biphenyl]-3-yl)methyl]-4,4-difluoro-1-(2-hydroxy-2-methylpropanoyl)pyrrolidin-3-yl]ethanesulfonamide]	106%
CC(C)C(=O)N1CC(F)(F)[C@H](NS(=O)(=O)C2CC2)[C@@H]1Cc1cccc(-c2ccccc2)c1F [Example 171, N-[(2S,3R)-4,4-difluoro-2-[(2-fluoro[1,1′-biphenyl]-3-yl)methyl]-1-(2-methylpropanoyl)pyrrolidin-3-yl]cyclopropanesulfonamide]	99%
CCS(=O)(=O)N[C@@H]1[C@H](Cc2cccc(-c3ccccc3)c2F)N(C(=O)N2CCC2)CC1(F)F [Example 228, N-{(2S,3R)-1-(azetidine-1-carbonyl)-4,4-difluoro-2-[(2-fluoro[1,1′-biphenyl]-3-yl)methyl]pyrrolidin-3-yl}ethanesulfonamide]	99%
CCS(=O)(=O)N[C@@H]1[C@H](Cc2cccc(-c3cccc(F)c3F)c2F)N(C(=O)C2(O)CCC2)CC1(F)F [Example 274, N-{(2S,3R)-4,4-difluoro-1-(1-hydroxycyclobutane-1-carbonyl)-2-[(2,2′,3′-trifluoro[1,1′-biphenyl]-3-yl)methyl]pyrrolidin-3-yl}ethanesulfonamide]	93%
CCS(=O)(=O)N[C@H]1[C@@H](F)CN(C(=O)[C@H]2CCCO2)[C@H]1Cc1cccc(-c2cccc(F)c2F)c1F [Example 415, N-{(2S,3R,4S)-4-fluoro-1-[(2R)-oxolane-2-carbonyl]-2-[(2,2′,3′-trifluoro[1,1′-biphenyl]-3-yl)methyl]pyrrolidin-3-yl}ethanesulfonamide]	107%
CCS(=O)(=O)N[C@H]1[C@@H](F)CN(C(=O)C(C)(C)O)[C@H]1Cc1cccc(-c2cc(Cl)ccc2F)c1F [Example 348, N-[(2S,3R,4S)-2-[(5′-chloro-2,2′-difluoro[1,1′-biphenyl]-3-yl)methyl]-4-fluoro-1-(2-hydroxy-2-methylpropanoyl)pyrrolidin-3-yl]ethanesulfonamide]	103%
CS(=O)(=O)N[C@@H]1[C@H](Cc2cccc(-c3cccc(Cl)c3)c2F)N(C(=O)C2CC2)CC1(F)F [Example 250, N-[(2S,3R)-2-[(3′-chloro-2-fluoro[1,1′-biphenyl]-3-yl)methyl]-1-(cyclopropanecarbonyl)-4,4-difluoropyrrolidin-3-yl]methanesulfonamide]	96%
CC(C)C(=O)N1CC(F)(F)[C@H](NS(C)(=O)=O)[C@@H]1Cc1cccc(-c2cccc(F)c2)c1F [Example 98, N-[(2S,3R)-2-[(2,3′-difluoro[1,1′-biphenyl]-3-yl)methyl]-4,4-difluoro-1-(2-methylpropanoyl)pyrrolidin-3-yl]methanesulfonamide]	91%
CC(C)C(=O)N1C[C@H](F)[C@H](NS(C)(=O)=O)[C@@H]1Cc1cccc(-c2cccc(F)c2F)c1F [Example 314, N-{(2S,3R,4S)-4-fluoro-1-(2-methylpropanoyl)-2-[(2,2′,3′-trifluoro[1,1′-biphenyl]-3-yl)methyl]pyrrolidin-3-yl}methanesufonamide]	109%
CCS(=O)(=O)N[C@@H]1[C@H](Cc2cccc(-c3ccccc3)c2F)N(C(=O)[C@H]2CCCO2)CC1(F)F [Example 105, N-{(2S,3R)-4,4-difluoro-2-[(2-fluoro[1,1′-biphenyl]-3-yl)methyl]-1-[(2R)-oxolane-2-carbonyl]pyrrolidin-3-yl}ethanesulfonamide]	99%
CCS(=O)(=O)N[C@@H]1[C@H](Cc2cccc(-c3cc(C)cc(F)c3)c2F)N(C(=O)C2(O)CCC2)CC1(F)F [Example 394, N-[(2S,3R)-2-[(2,3′-difluoro-5′-methyl[1,1′-biphenyl]-3-yl)methyl]-4,4-difluoro-1-(1-hydroxycyclobutane-1-carbonyl)pyrrolidin-3-yl]ethanesulfonamide]	86%
CCS(=O)(=O)N[C@@H]1[C@H](Cc2cccc(-c3ccccc3)c2F)N(C(=O)C2CC2)CC1(F)F [Example 205, N-{(2S,3R)-1-(cyclopropanecarbonyl)-4,4-difluoro-2-[(2-fluoro[1,1′-biphenyl]-3-yl)methyl]pyrrolidin-3-yl}ethanesulfonamide]	91%
CS(=O)(=O)N[C@@H]1[C@H](Cc2cccc(-c3cccc(F)c3)c2F)N(C(=O)C2CC(F)C2)CC1(F)F (stereo partly drawn) [Example 393, N-[(2S,3R)-2-[(2,3′-difluoro[1,1′-biphenyl]-3-yl)methyl]-4,4-difluoro-1-(3-fluorocyclobutane-1-carbonyl)pyrrolidin-3-yl]methanesulfonamide]	94%
CCS(=O)(=O)N[C@@H]1[C@H](Cc2cccc(-c3cc(F)cc(F)c3)c2F)N(C(=O)N(C)C)CC1(F)F [Example 282, (2S,3R)-3-[(ethanesulfonyl)amino]-4,4-difluoro-N,N-dimethyl-2-[(2,3′,5′-trifluoro[1,1′-biphenyl]-3-yl)methyl]pyrrolidine-1-carboxamide]	96%

The next lines start with the values.

OX2R agonist activity (3 μM, %)	SMILES
100%	Cc1cccc(-c2cccc(C[C@H]3[C@@H](NS(=O)(=O)C4CC4)C(F)(F)CN3C(=O)C3CCO3)c2F)c1 (stereo partly drawn) [Example 428, N-[(2S,3R)-4,4-difluoro-2-[(2-fluoro-3′-methyl[1,1′-biphenyl]-3-yl)methyl]-1-(oxetane-2-carbonyl)pyrrolidin-3-yl]cyclopropanesulfonamide]
94%	CS(=O)(=O)N[C@@H]1[C@H](Cc2cccc(-c3ccccc3)c2F)N(C(=O)C2CC(F)C2)CC1(F)F (stereo partly drawn) [Example 440, N-[(2S,3R)-4,4-difluoro-2-[(2-fluoro[1,1′-biphenyl]-3-yl)methyl]-1-(3-fluorocyclobutane-1-carbonyl)pyrrolidin-3-yl]methanesulfonamide]
95%	O=C(N1CC(F)(F)[C@H](NS(=O)(=O)C2CC2)[C@@H]1Cc1cccc(-c2cccc(F)c2F)c1F)C1(O)CCC1 [Example 424, N-{(2S,3R)-4,4-difluoro-1-(1-hydroxycyclobutane-1-carbonyl)-2-[(2,2′,3′-trifluoro[1,1′-biphenyl]-3-yl)methyl]pyrrolidin-3-yl}cyclopropanesulfonamide]
95%	O=C(C1CCO1)N1C[C@H](F)[C@H](NS(=O)(=O)C2CC2)[C@@H]1Cc1cccc(-c2ccccc2)c1F (stereo partly drawn) [Example 496, N-[(2S,3R,4S)-4-fluoro-2-[(2-fluoro[1,1′-biphenyl]-3-yl)methyl]-1-(oxetane-2-carbonyl)pyrrolidin-3-yl]cyclopropanesulfonamide]
103%	CCS(=O)(=O)N[C@@H]1[C@H](Cc2cccc(-c3ccc(F)c(C)c3)c2F)N(C(=O)C(C)(C)O)CC1(F)F [Example 466, N-[(2S,3R)-2-[(2,4′-difluoro-3′-methyl[1,1′-biphenyl]-3-yl)methyl]-4,4-difluoro-1-(2-hydroxy-2-methylpropanoyl)pyrrolidin-3-yl]ethanesulfonamide]
93%	CCS(=O)(=O)N[C@@H]1[C@H](Cc2cccc(-c3cccc(OC(F)F)c3)c2F)N(C(=O)C2CC2)CC1(F)F [Example 550, N-[(2S,3R)-1-(cyclopropanecarbonyl)-2-{[3′-(difluoromethoxy)-2-fluoro[1,1′-biphenyl]-3-yl]methyl}-4,4-difluoropyrrolidin-3-yl]ethanesulfonamide]
85%	CCS(=O)(=O)N[C@@H]1[C@H](Cc2cccc(-c3cccc(F)c3F)c2F)N(C(=O)[C@H]2CCCO2)CC1(F)F [Example 455, N-{(2S,3R)-4,4-difluoro-1-[(2R)-oxolane-2-carbonyl]-2-[(2,2′,3′-trifluoro[1,1′-biphenyl]-3-yl)methyl]pyrrolidin-3-yl}ethanesulfonamide]
95%	Cc1cc(F)cc(-c2cccc(C[C@H]3[C@@H](NS(=O)(=O)C4CC4)C(F)(F)CN3C(=O)N3CCC3)c2F)c1 [Example 529, N-{(2S,3R)-1-(azetidine-1-carbonyl)-2-[(2,3′-difluroo-5′-methyl[1,1′-biphenyl]-3-yl)methyl]-4,4-difluoropyrrolidin-3-yl}cyclopropanesulfonamide]
95%	CCS(=O)(=O)N[C@@H]1[C@H](Cc2cccc(-c3cccc(OC)c3)c2F)N(C(=O)C2CC2)CC1(F)F [Example 512, N-{(2S,3R)-1-(cyclopropanecarbonyl)-4,4-difluoro-2-[(2-fluoro-3′-methoxy[1,1′-biphenyl]-3-yl)methyl]pyrrolidin-3-yl}ethanesulfonamide]
88%	CCS(=O)(=O)N[C@@H]1[C@H](Cc2cccc(-c3cccc(C(F)F)c3)c2F)N(C(=O)C2CC(F)C2)CC1(F)F (stereo partly drawn) [Example 505, N-[(2S,3R)-2-{[3′-(difluoromethyl)-2-fluoro[1,1′-biphenyl]-3-yl]methyl}-4,4-difluoro-1-(3-fluorocyclobutane-1-carbonyl)pyrrolidin-3-yl]ethanesulfonamide]
